The text below walks through data of patent publication US20230339878A1, “SLC26A3 INHIBITORS AND USE THEREOF” (THE REGENTS OF THE UNIVERSITY OF CALIFORNIA, priority 2018, published 2023).

Entries after “also recorded” stand apart in the source; their conditions may differ. Like-named read-outs stand apart in the source and are kept apart here.

One data set addresses T1, murine slc26a3 (Mus musculus, UniProt Q9WVC8).
T1 construct: host or cells: Fischer rat thyroid (FRT) cells expressing YFP, clonal line FRT-YFP-slc26a3
T1 sequence (Q9WVC8 1-757): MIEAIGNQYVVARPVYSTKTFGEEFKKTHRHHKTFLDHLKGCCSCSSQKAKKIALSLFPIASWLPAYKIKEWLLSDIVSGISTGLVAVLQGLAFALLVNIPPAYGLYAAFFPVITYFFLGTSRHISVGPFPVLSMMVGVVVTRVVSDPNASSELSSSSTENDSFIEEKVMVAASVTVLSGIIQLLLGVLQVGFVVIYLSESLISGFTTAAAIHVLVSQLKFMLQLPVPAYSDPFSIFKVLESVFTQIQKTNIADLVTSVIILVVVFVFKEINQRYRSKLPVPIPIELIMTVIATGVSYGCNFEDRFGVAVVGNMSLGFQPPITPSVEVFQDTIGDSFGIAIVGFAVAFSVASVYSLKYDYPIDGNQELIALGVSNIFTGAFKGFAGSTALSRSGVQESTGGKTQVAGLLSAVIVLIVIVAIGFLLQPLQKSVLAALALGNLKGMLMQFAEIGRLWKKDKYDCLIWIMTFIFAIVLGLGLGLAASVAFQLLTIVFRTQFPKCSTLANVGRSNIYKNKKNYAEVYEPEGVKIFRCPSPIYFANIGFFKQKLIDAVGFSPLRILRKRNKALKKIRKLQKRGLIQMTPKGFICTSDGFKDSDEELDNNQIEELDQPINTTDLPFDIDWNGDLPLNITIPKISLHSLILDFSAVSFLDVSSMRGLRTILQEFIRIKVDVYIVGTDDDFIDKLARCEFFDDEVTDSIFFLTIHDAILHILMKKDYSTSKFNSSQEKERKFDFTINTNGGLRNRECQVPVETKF
As to the kind of experiment: slc26a3-mediated Cl-/I- exchange, YFP fluorescence quenching in FRT-YFP-slc26a3 cells. The format is cell-based. As to the method:
High-throughput screening to identify slc26a3 inhibitors using FRT-YFP- slc26a3 cells was done with a semi-automated Beckman Coulter (Indianapolis, IN) platform with FLUOstar OMEGA plate readers (BMG Labtech, Cary, NC), essentially as described for discovery of pendrin inhibitors. Initial screening was done of ~50,000 drug-like synthetic small molecules (ChemDiv, San Diego, CA) at a concentration of 25 µM using a Cl^-/I^- exchange protocol to assay slc26a3 function. Following initial screening, compound analogs were purchased (ChemDiv, San Diego, CA) to generate structure-activity data.
For the screening, FRT-YFP-slc26a3 cells were plated in 96-well black-walled, clear-bottom tissue culture plates (Corning Life Sciences, Tewksbury, MA) at a density of 20,000 cells/well and cultured for 48 hours until confluent. For screening, cells were washed twice in PBS and incubated for 10 min in 100 µl PBS containing test compounds prior to assay of slc26a3 function. Assays were done using a FLUOstar OMEGA plate reader (BMG Labtech, Cary, NC) over 12 s with initial fluorescence recorded over 1 s prior to addition of 100 µl NaI-substituted PBS (137 mM NaCl replaced by 137 mM NaI) to drive Cl^-/I^- exchange. The initial rate of Cl^-/I^- exchange was determined from fluorescence intensity by single exponential regression. All plates contained wells with negative (1 % DMSO) and positive (350 µM niflumic acid) controls.
Screening was done using an FRT cell line stably expressing murine slc26a3 and a halide-sensitive yellow fluorescent protein (FRT-YFP- slc26a3 cells). FRT cells were used because of their low intrinsic permeability to anions that are transported by slc26a3, and because of their good adherence and rapid growth on uncoated plastic. As diagrammed in FIG. 1A, slc26a3-mediated transport was assayed from the kinetics of YFP fluorescence quenching in response to extracellular addition of I^- to drive Cl^-/I^- exchange; transport inhibition reduces the rate of fluorescence decrease.

The subject of data set [1] is loperamide-treated wild-type mice. As to the kind of experiment: Loperamide-induced constipation model in wild-type mice. The format is in vivo. To be noted: 5 mg/kg oral gavage 1 hour before loperamide, wild-type mice. The method, then: Female CD1 mice (age 8-10 weeks) were administered loperamide (0.3 mg/kg, intraperitoneally, Sigma-Aldrich) to produce constipation. Compound A1 (DRAinh-A250) (5 mg/kg, in saline containing vehicle (5% DMSO and 10% Kolliphor HS 15; Sigma-Aldrich)), tenapanor (5 mg/kg, in vehicle), both compounds (5 mg/kg each, in vehicle), or vehicle alone were administered by oral gavage 1 hour before loperamide. After loperamide injection, mice were placed individually in metabolic cages with ad libitum access to food and water. Stool samples were collected for 3 h, and total stool weight and number of fecal pellets were quantified. To measure stool water content, stool samples were dried at 80° C. for 24 h and water content was calculated as [wet weight-dry weight]/wet weight. Similar studies were done in cystic fibrosis (CF) mice (ΔF508 homozygous) lacking functional CFTR.
Constipation Model in MiceDRAinh-A260 and DRAinh-A270 were tested in a loperamide-induced constipation model in mice. Female CD1 mice (age 8-10 weeks) were administered loperamide (0.3 mg/kg, intraperitoneally, in 5% ethanol in PBS, 0.1 mg/mL final concentration) to produce constipation and vehicle in control mice. DRAinh-A260 (5 mg/kg, in saline with 5% DMSO and 10% Kolliphor HS 15) or DRAinh-A270 (1, 3 or 10 mg/kg, in PBS with 5% DMSO and 20% (2- hydroxypropyl)-β-cyclodextrin) or vehicle alone were administered by oral gavage 1 hour before loperamide (FIG. 11A). After loperamide injection, mice were placed individually in metabolic cages with free access to food and water. Stool samples were collected for 3 hours, and total stool weight and number of fecal pellets were quantified. To measure stool water content, stool samples were dried at 80° C. for 24 hours and water content was calculated as [wet weight-dry weight]/wet weight.

A short description of data set [2]: Pharmacokinetics in mice, serum LC/MS. The format is in vivo. As to the method: Pharmacokinetics of the Compound A1(DRAinh-A250) and analogs (DRAinh-A260 and DRAinh-A270) was determined in mice. After single dose intraperitoneal or oral administration (5 mg/kg for Compound A1 and DRAinh-A260, 10 mg/kg for DRAinh-A270), blood samples were collected via retro-orbital puncture at different time points and serum was separated by centrifugation. Compound concentrations were measured in serum using LC/MS. FIGS. 10A, 10B, 10C show the respective serum concentration of Compound A1 (FIG. 10A), DRAinh-A260 (FIG. 10B) and DRAinh-A270 (FIG. 10C) after single oral or intraperitoneal administration at zero time (n=3 mice per compound per administration route). Compound A1 had predicted therapeutic levels for at least 24 hours after single dose oral or intraperitoneal administration. […] (mean±SEM): 53.9±6.5% for Compound A1, 16.4±6.6% for DRAinh-A260, and 39.3±3.5% for DRAinh-A270.

Where [3] appears, read: representative Class A compounds, Table 3, read-out: IC50.

As for `Cc1c(CC(=O)O)c(=O)oc2c(C)c(OCc3ccc(Cl)c(Cl)c3)ccc12` [Compound A7], on murine slc26a3 (selected class A analogs, Table 1, Cl-/I- exchange, read-out: IC50), the IC50 came out at 1800 nM.

As for `Cc1c(CC(=O)O)c(=O)oc2c(C)c(OCc3cccc([N+](=O)[O-])c3)ccc12` [Compound A253], at murine slc26a3 (setting [3]), the IC50 came to 500 nM.

Turning to `Cc1c(CC(=O)O)c(=O)oc2c(C)c(OCc3cccc(C4CC4)c3)ccc12` [Compound A261], the IC50 at murine slc26a3 (setting [3]) came to 70 nM.

Turning to `Cc1c(CC(=O)O)c(=O)oc2c(C)c(OCc3cc(C(F)(F)F)cc(C(F)(F)F)c3)ccc12` [Compound A263], on murine slc26a3 (setting [3]), the IC50 is 15000 nM.

For the compound `Cc1c(CC(=O)O)c(=O)oc2c(C)c(OCc3cc(C(F)(F)F)ccc3F)ccc12` [Compound A266], the IC50 on murine slc26a3 (setting [3]) is 100 nM.

With `Cc1c(CC(=O)O)c(=O)oc2c(C)c(OCc3ccccc3I)ccc12` [Compound A269], the IC50 on murine slc26a3 (setting [3]) was found to be 4500 nM.

As for `CCCCCCOc1ccc2c(C)c(CC(=O)O)c(=O)oc2c1C` [Compound A278], the IC50 at murine slc26a3 (setting [3]) stood at 1500 nM.

For the compound `Cc1c(CC(=O)O)c(=O)oc2c(C)c(OC3CCCC3)ccc12` [Compound A279], the IC50 at murine slc26a3 (setting [3]) is 4500 nM.

As to `Cc1c(CC(=O)O)c(=O)oc2c(C)c(OCC3CCC3)ccc12` [Compound A280], the IC50 on murine slc26a3 (setting [3]) is 3400 nM.

Take `Cc1c(CC(=O)O)c(=O)oc2c(C)c(OCC3CCCC3)ccc12` [Compound A281]: the IC50 on murine slc26a3 (setting [3]) amounted to 1800 nM.

Consider `Cc1c(CC(=O)O)c(=O)oc2c(C)c(OCc3ccc(C(F)(F)F)o3)ccc12` [Compound A286], for which the IC50 on murine slc26a3 (setting [3]) is 300 nM.

One may read the bioavailability as the share of a dose that reaches the circulation, judged against a reference dose that is usually intravenous. Consider `Cc1c(CC(=O)O)c(=O)oc2c(C)c(OCc3cccc(C(F)(F)F)c3)ccc12` [DRAinh-A260], for which the IC50 on murine slc26a3 (setting [3]) was 25 nM. The “three-hour stool weight, number of pellets and stool water content” value in data set [1] was “improving stool weight, pellet number and water content; also recorded: improves 3-hour stool weight, pellet number and water content”. In data set [2] (5 mg/kg (A1, A260) or 10 mg/kg (A270), mice), this compound displayed an oral bioavailability of 16%. In addition, the “serum level time course” value in data set [2] (5 mg/kg single dose oral or intraperitoneal) is “high serum levels initially; also recorded: almost complete disappearance of compound from serum at 16 hours”. The bioavailability in data set [2] (mouse, serum, po, 5 mg/kg (A1, A260) or 10 mg/kg (A270), mice, n=3, read-out: oral bioavailability (mean±SEM)) amounted to 16.4 ± 6.6%.

Take `O=C(O)c1cccnc1Nc1cccc(C(F)(F)F)c1` [niflumic acid, reference compound]: the “inhibition of slc26a3, positive control” value on murine slc26a3 (350 µM) was “strongly inhibited”. Also, on murine slc26a3 (read-out: IC50 for inhibition of slc26a3-mediated Cl-/I- exchange), the IC50 is around 60000 nM.
